ChEMBL document CHEMBL4354835, “Selective Blockade of Neuronal BK (α + β4) Channels Preventing Epileptic Seizure” (J Med Chem, 2020)
Changes are numbered by the printed parent chain. The source made the active and inactive calls. The calls are words filed in the database; no cut-off is given here.

How the values were obtained:
[1] = target: T1, KCNMA1/KCNMB4 (Rattus norvegicus) (UniProt Q62976+Q9ESK8); assay: Inhibition of BK alpha/beta-4 in PTZ-stimulated rat hippocampal pyramidal neurons assessed as slower decay of after hyperpolarization at 300 pA at -80mV holding potential measured after 10 mins by whole cell current clamp assay; assay type: protein-complex assay
[2] = organism: Rattus norvegicus; assay: Anticonvulsant activity against PTZ-induced epileptic seizures Sprague-Dawley rat model assessed as decrease in number of seizures at high stage (stage 4 and 5) compound infused into hippocampal region and 10 mins later injected with PTZ and measured for 2 hrs post-PTZ stimulation; assay type: functional, organism-based
[3] = target: T1, KCNMA1/KCNMB4 (Rattus norvegicus); assay: Inhibition of BK alpha/beta-4 in PTZ-stimulated rat hippocampal pyramidal neurons assessed as larger action potential width at 300 pA current injection at -80mV holding potential measured after 10 mins by whole cell current clamp assay; assay type: protein-complex assay
[4] = target: T2, Calcium-activated potassium channel subunit beta-4 (Homo sapiens, UniProt Q86W47); assay: Binding affinity to NT-495 fluorophore reagent labelled human BK beta4 (45 to 166 residues) incubated for 30 mins by microscale thermophoresis assay; conditions: read-out: Kd
T2 sequence (Q86W47 whole entry): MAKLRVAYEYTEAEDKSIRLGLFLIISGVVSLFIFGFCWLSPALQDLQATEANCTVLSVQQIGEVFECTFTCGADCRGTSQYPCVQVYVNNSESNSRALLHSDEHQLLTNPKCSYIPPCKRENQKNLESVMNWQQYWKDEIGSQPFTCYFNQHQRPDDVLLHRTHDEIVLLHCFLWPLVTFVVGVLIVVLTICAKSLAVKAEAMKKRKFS

[5] = organism: Homo sapiens; assay: Selectivity ratio of compound Kd for NT-495 fluorophore reagent labelled human BK beta4 Q124A mutant to compound Kd for NT-495 fluorophore reagent labelled human BK beta4 (45 to 166 residues) by microscale thermophoresis assay
[6] = organism: Rattus norvegicus; assay: Effect on neuronal network in PTZ-induced epileptic seizures Sprague-Dawley rat model assessed as lowered PSD at beta wave band compound infused into hippocampal region and 10 mins later injected with PTZ and measured after 2 hrs by power spectral density analysis; assay type: functional, organism-based
[7] = organism: Homo sapiens; assay: Selectivity ratio of compound Kd for NT-495 fluorophore reagent labelled human BK beta4 E104K mutant to compound Kd for NT-495 fluorophore reagent labelled human BK beta4 (45 to 166 residues) by microscale thermophoresis assay
[8] = target: T1, KCNMA1/KCNMB4 (Rattus norvegicus); assay: Inhibition of BK alpha/beta-4 in rat hippocampal pyramidal neurons assessed as inhibition of PTZ-induced action potential at -80 mV holding potential at 300 pA current injection measured after 10 mins by whole cell current clamp assay
[9] = organism: Rattus norvegicus; assay: (§1) Neuroprotective activity in PTZ-induced epileptic seizure Sprague-Dawley rat model assessed as inhibition of hippocampal destruction by measuring increase in Nissl stained pyramidal neurons in contralateral hippocampus CA1 region compound infused into hippocampal region and 10 mins later injected with PTZ and measured after 3 days by Nissl staining based microscopic analysis; assay type: functional, organism-based
[10] = test system: T3, Calcium-activated potassium channel subunit beta-4 (Homo sapiens), Q86W47 [E122K]; assay: Binding affinity to NT-495 fluorophore reagent labelled human BK beta4 E122K mutant incubated for 30 mins by microscale thermophoresis assay
T3 sequence (whole entry): T2 sequence (Q86W47 whole entry) with E122K

[11] = target: T1, KCNMA1/KCNMB4 (Rattus norvegicus); assay: Inhibition of BK alpha/beta-4 in PTZ-stimulated rat hippocampal pyramidal neurons assessed as appearance of more action potential failures at -80mV holding potential measured after 10 mins during 300pA current injection by whole cell current clamp assay; assay type: protein-complex assay
[12] = organism: Rattus norvegicus; assay: (§2) Inhibition of C-Fos expression in PTZ-induced epileptic seizures Sprague-Dawley rat model assessed as inhibition of FLI-positive granular neurons in DG region of ipsilateral hippocampus at 10 uM compound infused into hippocampal region and 10 mins later injected with PTZ and measured after 2 hrs by immunohistochemistry; assay type: functional, organism-based
[13] = target: T4, KCNMA1/KCNMB4 (Homo sapiens, UniProt Q12791+Q86W47); assay: Inhibition of human BK alpha/beta4 channel expressed in HEK293T cells assessed as inhibition of K+ outward current fraction at -80 mV holding potential by whole cell patch clamp technique; assay type: cell-based
[14] = organism: Rattus norvegicus; assay: as §2, with “pyramidal” for “granular”, “CA3” for “DG”; assay type: functional, organism-based
[15] = organism: Rattus norvegicus; assay: Effect on neuronal network in PTZ-induced epileptic seizures Sprague-Dawley rat model assessed as lowered PSD at theta wave band compound infused into hippocampal region and 10 mins later injected with PTZ and measured after 2 hrs by power spectral density analysis; assay type: functional, organism-based
[16] = organism: Rattus norvegicus; assay: as §2, with “pyramidal” for “granular”, “CA1” for “DG”; assay type: functional, organism-based
[17] = organism: Rattus norvegicus; assay: as §2, with “contralateral” for “ipsilateral”; assay type: functional, organism-based
[18] = organism: Rattus norvegicus; assay: as §1, with “CA3” for “CA1”; assay type: functional, organism-based
[19] = organism: Rattus norvegicus; assay: as §2, with “pyramidal” for “granular”, “CA3” for “DG”, “contralateral” for “ipsilateral”; assay type: functional, organism-based
[20] = organism: Rattus norvegicus; assay: as §1, with “ipsilateral” for “contralateral”; assay type: functional, organism-based
[21] = target: Calcium-activated potassium channel subunit beta-4 (Homo sapiens, UniProt Q86W47, Q124A); assay: Binding affinity to NT-495 fluorophore reagent labelled human BK beta4 Q124A mutant incubated for 30 mins by microscale thermophoresis assay
[22] = organism: Rattus norvegicus; assay: as §1, with “granular” for “pyramidal”, “ipsilateral” for “contralateral”, “DG” for “CA1”; assay type: functional, organism-based
[23] = target: T4, KCNMA1/KCNMB4; assay: Inhibition of human BK alpha/beta4 channel expressed in HEK293T cells assessed as K+ outward current fraction at 10 uM at -80 mV holding potential by whole cell patch clamp method relative to control; assay type: cell-based
[24] = organism: Rattus norvegicus; assay: Effect on neuronal network in PTZ-induced epileptic seizures Sprague-Dawley rat model assessed as reduced total PSD frequency waves compound infused into hippocampal region and 10 mins later injected with PTZ and measured after 2 hrs by power spectral density analysis; assay type: functional, organism-based
[25] = target: T1, KCNMA1/KCNMB4 (Rattus norvegicus); assay: Inhibition of BK alpha/beta-4 in PTZ-stimulatedrat hippocampal pyramidal neurons assessed as reduction in neuronal firing rate at -80mV holding potential in presence of 200 to 300 pA current injection measured after 10 mins by whole cell current clamp assay; assay type: protein-complex assay
[26] = organism: Rattus norvegicus; assay: Inhibition of field potential response in PTZ-induced epileptic seizure Sprague-Dawley rat model compound infused into hippocampal region and 10 mins later injected with PTZ and measured after 2 hrs by microarray electrode based analysis; assay type: functional, organism-based
[27] = organism: Homo sapiens; assay: Inhibition of human BK alpha/human beta4 Q124A mutant expressed in HEK293T cells assessed as K+ fractional outward current at 10 uM at -80 holding potential by whole cell patch clamp technique relative to control; assay type: cell-based

T4 sequence (Q12791 whole entry, one chain of several): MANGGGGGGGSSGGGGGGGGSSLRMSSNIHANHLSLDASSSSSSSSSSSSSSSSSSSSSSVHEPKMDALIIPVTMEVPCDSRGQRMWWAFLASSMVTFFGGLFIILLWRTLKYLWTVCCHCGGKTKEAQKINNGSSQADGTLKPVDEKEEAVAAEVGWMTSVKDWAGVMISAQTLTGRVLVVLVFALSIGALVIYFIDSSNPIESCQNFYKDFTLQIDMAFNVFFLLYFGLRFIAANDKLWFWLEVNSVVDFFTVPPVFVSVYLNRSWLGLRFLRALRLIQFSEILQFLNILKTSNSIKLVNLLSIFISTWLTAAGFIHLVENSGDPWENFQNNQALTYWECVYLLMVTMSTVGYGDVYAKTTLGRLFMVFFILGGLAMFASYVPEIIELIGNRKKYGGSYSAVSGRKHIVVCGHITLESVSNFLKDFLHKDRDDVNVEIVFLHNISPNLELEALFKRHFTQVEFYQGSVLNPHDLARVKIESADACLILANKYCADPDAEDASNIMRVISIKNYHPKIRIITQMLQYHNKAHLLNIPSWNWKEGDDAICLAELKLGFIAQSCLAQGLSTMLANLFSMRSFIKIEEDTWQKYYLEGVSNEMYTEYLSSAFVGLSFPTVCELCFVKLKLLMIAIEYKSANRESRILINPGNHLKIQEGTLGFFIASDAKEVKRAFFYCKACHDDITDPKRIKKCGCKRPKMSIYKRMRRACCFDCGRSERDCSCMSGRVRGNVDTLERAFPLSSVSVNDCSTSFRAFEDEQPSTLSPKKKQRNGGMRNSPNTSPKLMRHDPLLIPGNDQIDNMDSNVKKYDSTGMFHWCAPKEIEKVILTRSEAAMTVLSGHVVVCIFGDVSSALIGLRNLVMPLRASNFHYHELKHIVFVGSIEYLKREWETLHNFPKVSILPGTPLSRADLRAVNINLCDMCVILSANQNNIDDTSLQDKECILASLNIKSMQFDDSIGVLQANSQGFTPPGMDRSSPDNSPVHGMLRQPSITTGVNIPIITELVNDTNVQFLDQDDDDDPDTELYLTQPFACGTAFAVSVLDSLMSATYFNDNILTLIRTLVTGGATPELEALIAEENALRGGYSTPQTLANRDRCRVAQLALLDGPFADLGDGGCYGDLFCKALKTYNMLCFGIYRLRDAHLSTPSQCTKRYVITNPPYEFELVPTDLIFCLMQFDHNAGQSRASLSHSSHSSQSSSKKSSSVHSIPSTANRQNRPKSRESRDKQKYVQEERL
Calcium-activated potassium channel subunit beta-4 (Homo sapiens, UniProt Q86W47, Q124A), sequence (Q86W47 whole entry Q124A): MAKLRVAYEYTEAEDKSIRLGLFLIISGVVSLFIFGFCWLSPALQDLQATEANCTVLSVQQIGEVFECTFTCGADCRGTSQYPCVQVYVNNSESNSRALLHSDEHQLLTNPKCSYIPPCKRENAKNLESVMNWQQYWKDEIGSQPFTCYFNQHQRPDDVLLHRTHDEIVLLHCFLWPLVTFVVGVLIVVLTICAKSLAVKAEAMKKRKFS

Question: For `CC[C@H](C)[C@H](NC(=O)[C@H](CC(C)C)NC(=O)CNC(=O)[C@H](Cc1ccccc1)NC(=O)[C@H](CO)NC(=O)CN)C(=O)N[C@@H](CC(=O)O)C(=O)N[C@H](C(=O)N[C@@H](CCCCN)C(=O)N[C@H]1CSSC[C@@H]2NC(=O)[C@H](CCCCN)NC(=O)CNC(=O)[C@H](CCC(N)=O)NC(=O)CNC(=O)[C@H](CO)NC(=O)CNC(=O)[C@H]([C@@H](C)O)NC(=O)[C@H](C(C)C)NC(=O)[C@H](CCCCN)NC(=O)[C@H](CCCCN)NC(=O)[C@@H]3CSSC[C@@H](C(=O)N[C@@H](Cc4ccc(O)cc4)C(=O)O)N[C@@H](CCCNC(=N)N)C(=O)[C@H](CSSC[C@H](NC(=O)[C@H](CCC(=O)O)NC(=O)[C@H](CO)NC(=O)[C@H](CO)NC(=O)[C@H](C)NC(=O)[C@H](Cc4ccccc4)NC1=O)C(=O)N[C@@H](Cc1c[nH]c4ccccc14)C(=O)N[C@@H]([C@@H](C)O)C(=O)N[C@@H](C)C(=O)N3)N[C@@H](CCC(N)=O)C(=O)NC(=O)[C@H](CC(N)=O)NC(=O)[C@H](CC(N)=O)NC(=O)[C@H](CCC(N)=O)NC2=O)C(C)C`, which inhibition [1] is on record?
Answer: Active

Question: What about the Activity [2] of the same compound?
Answer: Active

Question: What about the inhibition [3] of the same compound?
Answer: Active

Question: What about the Kd [4] of the same compound?
Answer: 511 µM

Question: And the Selectivity ratio [5]?
Answer: 2

Question: And the Activity [6]?
Answer: Active

Question: And the Selectivity ratio [7]?
Answer: 1.4

Question: And the inhibition [8]?
Answer: Active

Question: And the Activity [9]?
Answer: Active

Question: And the Activity [10]?
Answer: inactive

Question: And the inhibition [11]?
Answer: Active

Question: What about the inhibition [12] of the same compound?
Answer: Active

Question: And the IC50 [13]?
Answer: 0.602 µM

Question: And the inhibition [14]?
Answer: Active

Question: And the Activity [15]?
Answer: Active

Question: And the inhibition [16]?
Answer: Active

Question: What about the inhibition [17] of the same compound?
Answer: Active

Question: What about the Activity [18] of the same compound?
Answer: Active

Question: What about the inhibition [19] of the same compound?
Answer: Active

Question: And the Activity [20]?
Answer: Active

Question: And the Kd [21]?
Answer: 975 µM

Question: And the Activity [22]?
Answer: Active

Question: And the Ratio [23]?
Answer: 0.33

Question: And the inhibition [24]?
Answer: Active

Question: And the inhibition [25]?
Answer: Active

Question: What about the inhibition [26] of the same compound?
Answer: Active

Question: What about the Ratio [27] of the same compound?
Answer: 0.6
